For assay [1], the system named is H1975 cells. The assay can be described thus: Wound healing and transwell assays, H1975. It counts as cell-based, human. On the procedure:
(§1) The cancer cells were cultured in 6-well plates for 48 h at 37 °C. Wounds were created in the cell monolayer and washed with PBS to remove cell debris, then the cells were treated with different concentrations of inhibitor for 48 h. After that, the dead cells were washed away with PBS, and the images were taken by the fluorescence microscope (OLYMPUS).
(§2) Cell migration assay was evaluated by using Boyden chambers containing a transwell membrane filter with an 8 μm size pore (Corning Costa Corp, Cambridge, MA, USA). Prior to the invasion assay, the filter membrane was coated with 60 μL of Matrigel (BD Biosciences, Billerica, MA, USA) at a 1:8 dilution and rehydrated by adding […] serum-free medium to the apical side of the chamber at 37 °C for 0.5 h. The cells (2 × 10^5 cells/well for invasion assay) were seeded to the apical side of the chamber with 200 μL medium with different concentrations of inhibitors, and the basolateral side of the chamber was filled with 600 μL medium containing 10% FBS. After 24 h at 37 °C, the cells adherent to the upper surface of the filter were swept by cotton swabs, then fixed with methanol, stained with crystal violet, and the cells were counted under a microscope in five random fields, irrespective of staining intensity. The images were taken by the fluorescence microscope (OLYMPUS).

Assay [2] has as its system LO-2 cells. The assay can be described thus: CCK-8 cell viability, LO-2 normal liver cells. It counts as cell-based. Conditions: Homo sapiens, L02, LO-2 normal liver cell line, read-out: Cellular Antiproliferative Activity (IC50, μM) LO-2. On the procedure:
(§3) All the cell viability assays were performed according to the CCK-8 method. The cells were seeded at a density of 5 to 8 × 10^4 cells/mL in 96-well plates in growth medium supplemented with 10% serum at 37 °C with 5% CO2 for one day. After 12 h of incubation, 100 μL of medium was removed, and 100 μL of sample solution with different concentrations of inhibitor was added and then the cells were incubated for 48 or 72 h. Subsequently, 10 μL of CCK-8 reagent (Biotool Company, Kirchberg, Switzerland, 5.0 mg/mL) dissolved in phosphate-buffered saline (PBS) was added and the cells were incubated for another 4 h. The absorbance was read at 450 nm with a microplate reader (Thermo Fisher Scientific, Waltham, MA, USA). The data were calculated using GraphPad Prim version 5.0.

The test system of assay [3] is A431 cells. The assay can be described thus: Wound healing and transwell assays, A431. It counts as cell-based, human. On the procedure: as §1, §2
Assay [4] concerns H1975 cells. The assay can be described thus: Cell cycle analysis, PI flow cytometry, H1975. It counts as cell-based, human. As to conditions: H1975, 200 nM, 48 h, cell cycle phase. On the procedure:
(§4) The H1975 and A431 cells at a density of approximately 2 × 10^5 cells/well were incubated in 6-well plates, treated with different concentrations of inhibitors for 48 h, collected and fixed with 70% ethanol at 4 °C overnight. After fixation, the cells were washed with PBS and stained with propidium iodide (PI) for 10 min under subdued light. Stained cells were analyzed by flow cytometry assay (Becton-Dickinson, Franklin Lakes, NJ, USA).

For assay [5], the system named is A431 cells. The assay can be described thus: CCK-8 cell viability, A431. It counts as cell-based. Conditions: Homo sapiens, A-431; A431 (wild-type), CCK-8; read-out: Cellular Antiproliferative Activity (IC50, μM) A431. On the procedure: as §3
Assay [6] relates to A431 cells. The assay can be described thus: Cell cycle analysis, PI flow cytometry, A431. It counts as cell-based, human. As to conditions: 48 h. On the procedure: as §4
(Flow cytometry measures light scatter and fluorescence of single cells or particles in a stream.)

The subject of assay [7] is H1975 cells. The assay can be described thus: Intracellular ROS generation (DCFH-DA), H1975. It counts as cell-based, human. As to conditions: H1975, 24 h. On the procedure: (§5) The human H1975 and A431 cells at a density of approximately 2 × 10^5 cells/well were plated in a 6-well plate and then treated with different concentrations of inhibitors for 24 h. Then the cells were harvested, resuspended in 1 mL of DCFH-DA ([…]), and the levels of ROS were determined by flow cytometry (Becton-Dickinson, Franklin Lakes, NJ, USA).

Assay [8] has as its system A431 cells. The assay can be described thus: Intracellular ROS generation (DCFH-DA), A431. It counts as cell-based, human. As to conditions: A431, 24 h. On the procedure: as §5
The subject of assay [9] is HCC827 cells. The assay can be described thus: CCK-8 cell viability, HCC827. It counts as cell-based. Conditions: Homo sapiens; HCC827 (EGFR del E746_A750), CCK-8; read-out: Cellular Antiproliferative Activity (IC50, μM) HCC827. On the procedure:
as §3

Assay [10] concerns A549 cells. The assay can be described thus: CCK-8 cell viability, A549. It counts as cell-based. As to conditions: Homo sapiens; A549 (wild-type and k-ras), CCK-8; read-out: Cellular Antiproliferative Activity (IC50, μM) A549. On the procedure: as §3
Assay [11] has as its system H1975 cells. The assay can be described thus: CCK-8 cell viability, H1975. It counts as cell-based. As to conditions: Homo sapiens, NCI-H1975, H1975 (EGFR T790M), read-out: Cellular Antiproliferative Activity (IC50, μM) H1975. On the procedure: as §3

For orientation: IC50 means the concentration needed to halve the response being measured. In the case of `C=CC(=O)Nc1cccc(Nc2nc(Nc3ccc(CN4CCOCC4)cc3)ncc2Cl)c1` [DY3002, N-(3-((5-chloro-2-(4-((1-morpholino)methyl)phenylamino)-4-pyrimidinyl)amino)phenyl)acrylamide], the “inhibition of cell migration” value is recorded as “strongly inhibit migration” in assay [1] and “only moderately interfered” in assay [3]. The IC50 in assay [2] amounted to 4.24 µM; in [5], 0.382 µM; in [9], 0.0104 µM; in assay [10] it was 4.45 µM; in [11] it was 0.037 µM. Moreover, the G0/G1 is 91.33% in [4] and 75.87% in assay [6] (A431, 2 μM, cell cycle phase). The same molecule showed a S in assay [4] of 5.67%. For the same molecule, the cell-cycle arrest result in assay [6] (A431, 0.5, 1 and 2 μM) is recorded as “G0/G1 arrest”. Further, the “effect on ROS generation” value in [7] and in [8] was “effectively inhibited ROS generation” throughout.

Source of the values: PMC6274483, “Novel Selective and Potent EGFR Inhibitor that Overcomes T790M-Mediated Resistance in Non-Small Cell Lung Cancer” (Molecules, 2016).
